The CheMixHub viscosity set
± gives the uncertainty stated by the source.

Assay: xn = mol fraction of the nth substance listed
Settings: 101 kPa

OCCCCO + CN1CCCC1=O
viscosity (308.15 K, x1 = 0.0277): 1.784 ± 0.014 mPa·s | viscosity (308.15 K, x1 = 0.0556): 1.943 ± 0.015 mPa·s | viscosity (308.15 K, x1 = 0.1011): 2.235 ± 0.017 mPa·s | viscosity (308.15 K, x1 = 0.1982): 3.025 ± 0.023 mPa·s | viscosity (308.15 K, x1 = 0.2982): 4.088 ± 0.031 mPa·s | viscosity (308.15 K, x1 = 0.4038): 5.57 ± 0.041 mPa·s | viscosity (308.15 K, x1 = 0.4943): 7.06 ± 0.051 mPa·s | viscosity (308.15 K, x1 = 0.6011): 11.08 ± 0.078 mPa·s | viscosity (308.15 K, x1 = 0.7044): 16.24 ± 0.11 mPa·s | viscosity (308.15 K, x1 = 0.7935): 21.61 ± 0.15 mPa·s | viscosity (308.15 K, x1 = 0.8996): 33.43 ± 0.23 mPa·s | viscosity (308.15 K, x1 = 0.946): 39.29 ± 0.27 mPa·s | viscosity (308.15 K, x1 = 0.965): 41.43 ± 0.28 mPa·s

Cc1cc(C)cc(C)c1 + CCCCCCCCCCO
viscosity (298.15 K, x1 = 0.0752): 9.427 ± 0.063 mPa·s | viscosity (298.15 K, x1 = 0.1354): 7.818 ± 0.052 mPa·s | viscosity (298.15 K, x1 = 0.2083): 6.204 ± 0.042 mPa·s | viscosity (298.15 K, x1 = 0.265): 5.179 ± 0.035 mPa·s | viscosity (298.15 K, x1 = 0.3292): 4.194 ± 0.028 mPa·s | viscosity (298.15 K, x1 = 0.3894): 3.456 ± 0.023 mPa·s | viscosity (298.15 K, x1 = 0.4633): 2.728 ± 0.018 mPa·s | viscosity (298.15 K, x1 = 0.5303): 2.202 ± 0.015 mPa·s | viscosity (298.15 K, x1 = 0.6033): 1.754 ± 0.012 mPa·s | viscosity (298.15 K, x1 = 0.6643): 1.458 ± 0.011 mPa·s | viscosity (298.15 K, x1 = 0.7341): 1.195 ± 0.009 mPa·s | viscosity (298.15 K, x1 = 0.7998): 1.002 ± 0.009 mPa·s | viscosity (298.15 K, x1 = 0.8724): 0.838 ± 0.008 mPa·s | viscosity (298.15 K, x1 = 0.9442): 0.728 ± 0.008 mPa·s | viscosity (308.15 K, x1 = 0.0752): 6.401 ± 0.045 mPa·s | viscosity (308.15 K, x1 = 0.1354): 5.334 ± 0.038 mPa·s | viscosity (308.15 K, x1 = 0.2083): 4.256 ± 0.03 mPa·s | viscosity (308.15 K, x1 = 0.265): 3.572 ± 0.025 mPa·s | viscosity (308.15 K, x1 = 0.3292): 2.936 ± 0.02 mPa·s | viscosity (308.15 K, x1 = 0.3894): 2.445 ± 0.017 mPa·s | viscosity (308.15 K, x1 = 0.4633): 1.942 ± 0.014 mPa·s | viscosity (308.15 K, x1 = 0.5303): 1.595 ± 0.012 mPa·s | viscosity (308.15 K, x1 = 0.6033): 1.279 ± 0.01 mPa·s | viscosity (308.15 K, x1 = 0.6643): 1.084 ± 0.009 mPa·s | viscosity (308.15 K, x1 = 0.7341): 0.901 ± 0.008 mPa·s | viscosity (308.15 K, x1 = 0.7998): 0.768 ± 0.008 mPa·s | viscosity (308.15 K, x1 = 0.8724): 0.669 ± 0.007 mPa·s | viscosity (308.15 K, x1 = 0.9442): 0.606 ± 0.007 mPa·s
